Laboratory results published in ChEMBL document CHEMBL6074636, “Design and activity evaluation of new EGFR tyrosine kinase inhibitors containing cyclic polyamines” (Bioorg Med Chem Lett, 2024).
Activity calls are given as the source filed them. The rule behind the calls is not given here.

Experiments:
[1] = test system: A549; test: cells; assay type: functional, cell-based; conditions: Homo sapiens, A549, 48 h
Description: Antiproliferative activity against human A549 cells expressing wild type EGFR assessed as inhibition of cell growth incubated for 48 hrs by CCK assay

[2] = target: Epidermal growth factor receptor (Homo sapiens, UniProt P00533, EX19DEL); test: Inhibition of EGFR del19 mutant (unknown origin)
[3] = target: Epidermal growth factor receptor (Homo sapiens, UniProt P00533, C797S/L858R/T790M); test: Inhibition of EGFR L858R/T790M/C797S triple mutant (unknown origin)
[4] = test system: PC-9; test: Inhibition of colony formation in human PC-9 cells expressing EGFR del19/T790M/C797S triple mutant at 100 nM; assay type: functional, cell-based
[5] = test system: PC-9; test: cells; assay type: functional, cell-based; conditions: Homo sapiens, PC-9, 48 h
Description: Antiproliferative activity against human PC-9 cells assessed as inhibition of cell growth incubated for 48 hrs by CCK assay

[6] = test system: PC-9; test: Antiproliferative activity against human PC-9 cells expressing EGFR del19/T790M/C797S triple mutant assessed as reduction in cell proliferation at 100 to 500 nM incubated for 48 hrs Edu staining based analysis; assay type: functional; conditions: dose 100-500 nM
[7] = test system: PC-9; test: cells; assay type: functional, cell-based; conditions: Homo sapiens, PC-9, 48 h; remark: listed apart in the source
Description: Antiproliferative activity against human PC-9 cells expressing EGFR del19/T790M/C797S triple mutant assessed as inhibition of cell growth incubated for 48 hrs by CCK assay

[8] = Selectivity index, ratio of IC50 for cytotoxicity against human BEAS-2B cells assessed as inhibition of cell growth to IC50 for antiproliferative activity against human PC-9 cells expressing EGFR del19/T790M/C797S triple mutant assessed as inhibition of cell growth; assay type: toxicity, cell-based; conditions: read-out: Ratio IC50
[9] = test system: NCI-H1975; test: cells; assay type: functional, cell-based; conditions: Homo sapiens, NCI-H1975, 48 h
Description: Antiproliferative activity against human NCI-H1975 cells assessed as inhibition of cell growth incubated for 48 hrs by CCK assay

[10] = Cytotoxicity against human BEAS-2B cells assessed as inhibition of cell growth incubated for 48 hrs by CCK-8 assay; assay type: toxicity, cell-based
[11] = test system: PC-9; test: Inhibition of colony formation in human PC-9 cells expressing EGFR del19/T790M/C797S triple mutant at 1 uM; assay type: functional, cell-based
[12] = test system: PC-9; test: Inhibition of cell migration in human PC-9 cells expressing EGFR del19/T790M/C797S triple mutant at 1 uM incubated for 48 hrs by transwell assay; assay type: functional, cell-based

Chain of Epidermal growth factor receptor (Homo sapiens, UniProt P00533, C797S/L858R/T790M) (P00533 25-1210 T790M/C797S/L858R limits assumed): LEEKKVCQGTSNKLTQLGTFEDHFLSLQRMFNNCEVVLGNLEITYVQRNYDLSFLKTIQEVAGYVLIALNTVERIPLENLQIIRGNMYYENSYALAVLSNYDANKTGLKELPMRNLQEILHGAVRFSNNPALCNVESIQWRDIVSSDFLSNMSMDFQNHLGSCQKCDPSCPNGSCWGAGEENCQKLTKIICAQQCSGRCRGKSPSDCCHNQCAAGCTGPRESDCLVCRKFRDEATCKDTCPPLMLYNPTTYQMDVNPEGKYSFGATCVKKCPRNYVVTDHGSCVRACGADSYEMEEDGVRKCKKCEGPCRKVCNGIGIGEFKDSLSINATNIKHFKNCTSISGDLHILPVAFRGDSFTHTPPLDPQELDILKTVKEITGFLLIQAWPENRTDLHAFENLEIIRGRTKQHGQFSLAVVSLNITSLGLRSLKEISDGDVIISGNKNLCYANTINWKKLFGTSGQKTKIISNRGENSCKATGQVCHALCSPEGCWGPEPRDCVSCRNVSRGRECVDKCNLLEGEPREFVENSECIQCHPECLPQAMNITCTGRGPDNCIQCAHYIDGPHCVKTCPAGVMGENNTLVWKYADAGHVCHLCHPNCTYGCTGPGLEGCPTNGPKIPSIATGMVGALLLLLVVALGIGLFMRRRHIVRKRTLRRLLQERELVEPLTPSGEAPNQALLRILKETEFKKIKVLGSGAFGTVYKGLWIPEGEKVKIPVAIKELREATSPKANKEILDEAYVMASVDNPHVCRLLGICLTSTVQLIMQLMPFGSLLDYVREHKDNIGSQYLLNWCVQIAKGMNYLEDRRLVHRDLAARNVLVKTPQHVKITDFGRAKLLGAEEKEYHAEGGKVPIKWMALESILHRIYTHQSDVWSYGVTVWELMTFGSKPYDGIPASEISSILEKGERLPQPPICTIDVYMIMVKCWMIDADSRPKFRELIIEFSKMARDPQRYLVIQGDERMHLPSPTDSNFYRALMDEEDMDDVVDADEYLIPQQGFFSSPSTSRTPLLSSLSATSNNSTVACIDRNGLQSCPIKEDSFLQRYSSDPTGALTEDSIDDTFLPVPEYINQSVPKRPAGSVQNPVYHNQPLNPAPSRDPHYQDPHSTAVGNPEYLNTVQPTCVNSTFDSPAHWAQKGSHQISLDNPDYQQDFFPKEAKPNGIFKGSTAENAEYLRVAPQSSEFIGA
Chain of Epidermal growth factor receptor (Homo sapiens, UniProt P00533, EX19DEL) (P00533 whole entry, looked up, stated change not applied): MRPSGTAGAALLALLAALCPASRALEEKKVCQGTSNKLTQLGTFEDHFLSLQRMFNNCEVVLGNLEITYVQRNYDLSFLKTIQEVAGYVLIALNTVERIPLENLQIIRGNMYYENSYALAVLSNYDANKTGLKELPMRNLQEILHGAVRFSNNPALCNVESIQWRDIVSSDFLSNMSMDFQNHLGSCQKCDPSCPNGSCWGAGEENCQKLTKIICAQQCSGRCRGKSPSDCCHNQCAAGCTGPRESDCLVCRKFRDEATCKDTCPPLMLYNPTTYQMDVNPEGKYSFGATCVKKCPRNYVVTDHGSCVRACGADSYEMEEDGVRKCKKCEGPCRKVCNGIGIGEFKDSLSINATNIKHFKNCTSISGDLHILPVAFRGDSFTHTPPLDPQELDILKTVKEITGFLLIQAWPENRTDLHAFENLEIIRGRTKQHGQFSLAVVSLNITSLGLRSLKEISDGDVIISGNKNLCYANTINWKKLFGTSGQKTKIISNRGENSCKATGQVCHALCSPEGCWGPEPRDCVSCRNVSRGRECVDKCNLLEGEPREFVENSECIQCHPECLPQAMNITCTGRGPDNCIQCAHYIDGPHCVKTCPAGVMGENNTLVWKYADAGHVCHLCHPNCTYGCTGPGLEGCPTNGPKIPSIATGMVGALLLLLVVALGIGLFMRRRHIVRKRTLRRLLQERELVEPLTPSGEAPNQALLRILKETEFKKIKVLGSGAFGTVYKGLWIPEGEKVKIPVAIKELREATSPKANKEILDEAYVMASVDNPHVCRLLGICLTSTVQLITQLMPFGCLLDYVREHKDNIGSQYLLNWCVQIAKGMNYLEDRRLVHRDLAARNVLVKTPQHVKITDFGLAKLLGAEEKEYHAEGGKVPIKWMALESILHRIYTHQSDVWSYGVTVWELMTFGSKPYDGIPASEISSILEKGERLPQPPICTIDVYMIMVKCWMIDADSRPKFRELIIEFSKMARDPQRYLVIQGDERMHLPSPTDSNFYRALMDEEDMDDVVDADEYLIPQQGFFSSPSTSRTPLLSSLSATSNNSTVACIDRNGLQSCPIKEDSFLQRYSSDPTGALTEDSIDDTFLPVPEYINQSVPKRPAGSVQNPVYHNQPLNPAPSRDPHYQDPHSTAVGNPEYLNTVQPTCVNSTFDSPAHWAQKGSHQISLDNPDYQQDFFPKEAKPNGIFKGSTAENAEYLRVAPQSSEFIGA

Structure (SMILES) | IC50 [1] | IC50 [2] | IC50 [3] | IC50 [5] | IC50 [7] | IC50 [9] | inhibition [4] | Activity [6] | selectivity ratio [8] | IC50 at 48 h [10] | inhibition [11] | inhibition [12]
COc1cccc(Nc2ncnc3cc4c(cc23)NC(=O)CN(CC(=O)O)CCN(CC(=O)O)CC(=O)N4)c1 | 35.1 µM |  |  | 12.3 µM | 6.7 µM | 3.04 µM |  |  |  |  |  | 
C#Cc1cccc(Nc2ncnc3cc4c(cc23)OCCOCCOCCO4)c1 [ICOTINIB] | 56 µM |  |  | 1.53 µM | 1.26 µM | 5.75 µM |  |  |  |  |  | 
O=C(O)CN1CCN(CC(=O)O)CC(=O)Nc2cc3c(Nc4ccc(F)c(Cl)c4)ncnc3cc2NC(=O)C1 | > 100 µM |  |  | 7.87 µM | 13.2 µM | 18.9 µM |  |  |  |  |  | 
CCc1cc(Br)ccc1Nc1ncnc2cc3c(cc12)NC(=O)CN(CC(=O)O)CCN(CC(=O)O)CC(=O)N3 | 3.32 µM |  |  | 49.3 µM | 3.43 µM | 4.85 µM |  |  |  |  |  | 
O=C(O)CN1CCN(CC(=O)O)CC(=O)Nc2cc3c(Nc4cccc(Br)c4)ncnc3cc2NC(=O)C1 | > 100 µM |  |  | 31.6 µM | 3.6 µM | 4.41 µM |  |  |  |  |  | 
CCc1cccc(Nc2ncnc3cc4c(cc23)NC(=O)CN(CC(=O)O)CCN(CC(=O)O)CC(=O)N4)c1 | > 100 µM | 0.378 µM | 0.321 µM | 10.2 µM | 1.52 µM | 8.11 µM |  |  |  |  |  | 
O=C(O)CN1CCN(CC(=O)O)CC(=O)Nc2cc3c(Nc4ccc(Cl)cc4Cl)ncnc3cc2NC(=O)C1 | > 100 µM |  |  | 1.66 µM | 11 µM | 4.54 µM |  |  |  |  |  | 

More lines, in order of falling IC50 [1], values ahead:

IC50 [1] | IC50 [2] | IC50 [3] | IC50 [5] | IC50 [7] | IC50 [9] | Structure (SMILES) | inhibition [4] | Activity [6] | selectivity ratio [8] | IC50 at 48 h [10] | inhibition [11] | inhibition [12]
7.78 µM | 0.161 µM | 0.251 µM | 2.7 µM | 0.767 µM | 3.44 µM | O=C(O)CN1CCN(CC(=O)O)CC(=O)Nc2cc3c(Nc4ccc(Br)cc4F)ncnc3cc2NC(=O)C1 |  |  |  |  |  | 
4.02 µM | 0.18 µM | 0.22 µM | 6.57 µM | 1.09 µM | 2.49 µM | O=C(O)CN1CCN(CC(=O)O)CC(=O)Nc2cc3c(Nc4ccc(OCc5cccc(F)c5)c(Cl)c4)ncnc3cc2NC(=O)C1 |  |  |  |  |  | 
3.91 µM |  |  | 32.9 µM | 14.2 µM | 3.91 µM | O=C(O)CN1CCN(CC(=O)O)CC(=O)Nc2cc3c(Nc4ccccc4)ncnc3cc2NC(=O)C1 |  |  |  |  |  | 
2.26 µM |  |  | 30.7 µM | 84 µM | 23.3 µM | O=C(O)CN1CCN(CC(=O)O)CC(=O)Nc2cc3c(Nc4cccc(Cl)c4)ncnc3cc2NC(=O)C1 |  |  |  |  |  | 
1.38 µM | > 1000 µM | > 1000 µM | 12.5 µM | 4.61 µM | 4.43 µM | O=C1CNCCNCC(=O)Nc2cc3c(Nc4ccc(F)c(Cl)c4)ncnc3cc2N1 |  |  |  |  |  | 
0.946 µM | 0.136 µM | 0.161 µM | 1.13 µM | 0.496 µM | 1.41 µM | O=C(O)CN1CCN(CC(=O)O)CC(=O)Nc2cc3c(Nc4cccc(F)c4)ncnc3cc2NC(=O)C1 | Active | Active | 34.7 | 17.2 µM | Active | Active
